Structures can show the parent of a compound that is named as a salt.
Experiment: Particle size of microparticles by laser diffraction analysis
Type: physicochemical
Conditions: starting material of Example 2
Description: The particle size of the obtained microparticles was determined by laser diffraction analysis. The parameters taken into consideration were: i) the VD in micron of 10%, 50%, and 90% of the particles expressed as d(v, 0.1), d(v, 0.5) and d(v, 0.9), respectively, which correspond to the mass diameter assuming a size independent density for the particles. ii) the polydispersity of the powder, i.e. the width of the particle size distribution which is expressed by the span (span=[d(v, 0.9)−d(v, 0.1)]/d (v, 0.5)—according to Chew N Y et al J Pharm Pharmaceut Sci 2002, 5, 162-168).
The agglomerates were isolated by sieving and their particle size distribution determined by laser diffraction analysis.
The microparticles were characterised in terms of particle size (laser diffraction analysis) and uniformity of distribution of the active ingredient.

COc1ccc(C[C@@H](C)NC[C@H](O)c2ccc(O)c3[nH]c(=O)ccc23)cc1 [CHF 4226 hydrochloride, 8-hydroxy-5-[(1R)-1-hydroxy-2-[[(1R)-2-(4-methoxyphenyl)-1-methylethyl]amino]ethyl-2(1H)-quinolinone hydrochloride]
MMD of micronised active ingredient: 1.8 micron

From US8153104B2, “Pharmaceutical formulations for dry powder inhalers comprising a low-dosage strength active ingredient” (Chiesi Farmaceutici S.p.A., priority 2005, dated 2012)
